Experiments:
[1] = test system: LNCaP tumor-transplanted mouse; assay: Internal radioactivity distribution using LNCaP tumor-transplanted mouse; format: in vivo
In short: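 Biodistribution is given as percent injected dose per gram of tissue, measured in blood and organs harvested at time points from 1 h to 192 h. Radiotracers were given by tail-vein injection in saline at 185–259 kBq, n=2–3. Hosts were male CB17 SCID mice carrying LNCaP or PC-3 tumours implanted s.c. in Matrigel 40–60 days earlier.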

[2] = test system: PC-3 tumor-transplanted mouse; assay: Internal radioactivity distribution using PC-3 tumor-transplanted mouse; format: in vivo
Protocol: (§1) The animal test was performed in compliance with the guidelines of Kyoto University Animal Experiment Committee. Male CB17/IcrJcl-Prkdc^scid mice were purchased from CLEA Japan, Inc. The animals were kept under 12 h/12 h, day/night cycle conditions and fed ad libitum with food and water. LNCaP cells (1.0×10^7 cells/mouse) or PC-3 cells (1.0×10^7 cells/mouse) were suspended in a mixture of PBS and Matrigel manufactured by Corning Life Sciences (1:1, 150 μL) and the suspension was subcutaneously transplanted to the right shoulder of mice under isoflurane anesthesia. Thereafter, the mice were kept for 40 to 60 days.
LNCaP or PC-3 tumor-implanted mice were administered saline solutions (185 kBq, 100 μL) of [^111In]In-PSMA-DA1 or [^111In]In-PSMA-DB from the tail vein (n=3 each). Mice were euthanized 1, 4, 24, 48, 96, and 192 hours after administration. Thereafter, blood and each organ were recovered, and the mass and radioactivity of the organs were measured.
The percentage (% ID) of the radioactivity amount to the administered radioactivity amount (injected dose) is shown as the value (% ID/g) divided by the blood mass or the organ mass (g).
as §1, with “LNCaP cells (4.3×10^6 cells/mouse) or” for “LNCaP cells (1.0×10^7 cells/mouse) or”, “PC-3 cells (3.3×10^6 cells/mouse) were” for “PC-3 cells (1.0×10^7 cells/mouse) were”, “shoulder of CB17/IcrJcl-Prkdc^scid mice under” for “shoulder of mice under”
Mice were euthanized 1, 4, 24, 48, 96, and 192 hours after administration. Thereafter, blood and each organ were recovered, and the mass and radioactivity of the organs were measured.
The results are shown in Table 13 (Mean value±standard deviation, n=3).

[3] = 1 h after administration, PC-3 tumor-transplanted mice

Blood ([1]; 1 h after administration): 3.33 ± 0.21 % ID/g
Brain ([1]; 1 h after administration): 0.06 ± 0.01 % ID/g
Heart ([1]; 1 h after administration): 0.87 ± 0.33 % ID/g
Intestine ([1]; 1 h after administration): 0.59 ± 0.14 % ID/g
Kidney ([1]; 1 h after administration): 59.2 ± 35.2 % ID/g
LNCaP Tumor ([1]; 1 h after administration): 3.36 ± 0.04 % ID/g
Liver ([1]; 1 h after administration): 0.91 ± 0.20 % ID/g
Lung ([1]; 1 h after administration): 2.24 ± 0.60 % ID/g
Muscle ([1]; 1 h after administration): 0.23 ± 0.68 % ID/g
Pancreas ([1]; 1 h after administration): 0.74 ± 0.25 % ID/g
Spleen ([1]; 1 h after administration): 3.05 ± 0.53 % ID/g
Stomach (% ID) ([1]; 1 h after administration): 0.10 ± 0.04 % ID
Blood ([1]; 4 h after administration): 2.00 ± 0.29 % ID/g
Brain ([1]; 4 h after administration): 0.05 ± 0.00 % ID/g
Heart ([1]; 4 h after administration): 0.60 ± 0.08 % ID/g
Intestine ([1]; 4 h after administration): 1.05 ± 0.10 % ID/g
Kidney ([1]; 4 h after administration): 22.7 ± 9.69 % ID/g
LNCaP Tumor ([1]; 4 h after administration): 2.50 ± 0.50 % ID/g
Liver ([1]; 4 h after administration): 0.95 ± 0.05 % ID/g
Lung ([1]; 4 h after administration): 1.56 ± 0.07 % ID/g
Muscle ([1]; 4 h after administration): 0.21 ± 0.04 % ID/g
Pancreas ([1]; 4 h after administration): 0.54 ± 0.22 % ID/g
Spleen ([1]; 4 h after administration): 2.39 ± 0.05 % ID/g
Stomach (% ID) ([1]; 4 h after administration): 0.13 ± 0.03 % ID
Blood ([1]; 24 h after administration): 0.68 ± 0.17 % ID/g
Brain ([1]; 24 h after administration): 0.07 ± 0.02 % ID/g
Heart ([1]; 24 h after administration): 0.43 ± 0.07 % ID/g
Intestine ([1]; 24 h after administration): 1.00 ± 0.44 % ID/g
Kidney ([1]; 24 h after administration): 13.2 ± 2.41 % ID/g
LNCaP Tumor ([1]; 24 h after administration): 2.09 ± 0.39 % ID/g
Liver ([1]; 24 h after administration): 1.55 ± 0.32 % ID/g
Lung ([1]; 24 h after administration): 0.97 ± 0.15 % ID/g
Muscle ([1]; 24 h after administration): 0.21 ± 0.07 % ID/g
Pancreas ([1]; 24 h after administration): 0.71 ± 0.10 % ID/g
Spleen ([1]; 24 h after administration): 3.37 ± 0.75 % ID/g
Stomach (% ID) ([1]; 24 h after administration): 0.16 ± 0.05 % ID
Blood ([1]; 48 h after administration): 0.27 ± 0.16 % ID/g
Brain ([1]; 48 h after administration): 0.03 ± 0.02 % ID/g
Heart ([1]; 48 h after administration): 0.32 ± 0.05 % ID/g
Intestine ([1]; 48 h after administration): 0.79 ± 0.21 % ID/g
Kidney ([1]; 48 h after administration): 8.58 ± 2.02 % ID/g
LNCaP Tumor ([1]; 48 h after administration): 1.69 ± 0.77 % ID/g
Liver ([1]; 48 h after administration): 1.28 ± 0.16 % ID/g
Lung ([1]; 48 h after administration): 0.66 ± 0.24 % ID/g
Muscle ([1]; 48 h after administration): 0.15 ± 0.06 % ID/g
Pancreas ([1]; 48 h after administration): 0.71 ± 0.17 % ID/g
Spleen ([1]; 48 h after administration): 2.63 ± 0.83 % ID/g
Stomach (% ID) ([1]; 48 h after administration): 0.07 ± 0.02 % ID
Blood ([1]; 96 h after administration): 0.14 ± 0.04 % ID/g
Brain ([1]; 96 h after administration): 0.09 ± 0.05 % ID/g
Heart ([1]; 96 h after administration): 0.40 ± 0.12 % ID/g
Intestine ([1]; 96 h after administration): 0.41 ± 0.17 % ID/g
Kidney ([1]; 96 h after administration): 7.04 ± 3.28 % ID/g
LNCaP Tumor ([1]; 96 h after administration): 1.05 ± 0.03 % ID/g
Liver ([1]; 96 h after administration): 1.59 ± 0.57 % ID/g
Lung ([1]; 96 h after administration): 0.70 ± 0.15 % ID/g
Muscle ([1]; 96 h after administration): 0.14 ± 0.08 % ID/g
Pancreas ([1]; 96 h after administration): 0.85 ± 0.39 % ID/g
Spleen ([1]; 96 h after administration): 2.82 ± 0.87 % ID/g
Stomach (% ID) ([1]; 96 h after administration): 0.10 ± 0.03 % ID
Blood ([1]; 192 h after administration): 0.07 ± 0.03 % ID/g
Brain ([1]; 192 h after administration): 0.04 ± 0.00 % ID/g
Heart ([1]; 192 h after administration): 0.33 ± 0.01 % ID/g
Intestine ([1]; 192 h after administration): 0.13 ± 0.02 % ID/g
Kidney ([1]; 192 h after administration): 3.47 ± 1.24 % ID/g
LNCaP Tumor ([1]; 192 h after administration): 0.83 ± 0.11 % ID/g
Liver ([1]; 192 h after administration): 1.20 ± 0.09 % ID/g
Lung ([1]; 192 h after administration): 0.67 ± 0.05 % ID/g
Muscle ([1]; 192 h after administration): 0.14 ± 0.09 % ID/g
Pancreas ([1]; 192 h after administration): 1.04 ± 0.18 % ID/g
Spleen ([1]; 192 h after administration): 3.46 ± 0.32 % ID/g
Stomach (% ID) ([1]; 192 h after administration): 0.05 ± 0.00 % ID
retention in blood / accumulation at the LNCaP tumor against the comparator (in words) ([1]; any time point): less accumulated
tumor/kidney ratio compared with [^111In]In-PSMA-DA1 (in words) ([1]; mouse, in vivo): lower
Blood [2, 3]: 1.92 ± 0.27 % ID/g
Brain [2, 3]: 0.06 ± 0.00 % ID/g
Heart [2, 3]: 0.49 ± 0.05 % ID/g
Intestine [2, 3]: 0.48 ± 0.04 % ID/g
Kidney [2, 3]: 49.5 ± 12.6 % ID/g
Liver [2, 3]: 0.62 ± 0.03 % ID/g
Lung [2, 3]: 1.36 ± 0.23 % ID/g
Muscle [2, 3]: 0.21 ± 0.08 % ID/g
PC-3 Tumor [2, 3]: 0.61 ± 0.06 % ID/g
Pancreas [2, 3]: 0.44 ± 0.06 % ID/g
Spleen [2, 3]: 2.57 ± 0.39 % ID/g
Stomach (% ID) [2, 3]: 0.12 ± 0.04 % ID
accumulation at the PC-3 tumor compared with the LNCaP tumor at the same time point (in words) ([2]; mouse, in vivo): less accumulated
SMILES: O=C([O-])CN1CCN(C(CCC(=O)NCCCC[C@H](NC(=O)N[C@@H](CCC(=O)O)C(=O)O)C(=O)O)C(=O)[O-])CCN(CC(=O)[O-])CCN(C(CCC(=O)Nc2ccccc2)C(=O)[O-])CC1.[111In+3] (stereo partly drawn) [[^111In]In-PSMA-DB, reference compound]

Reference: patent publication US20240174622A1, “COMPOUND AND RADIOACTIVE LABELING COMPOUND” (NIHON MEDI-PHYSICS CO., LTD., priority 2021, published 2024)
